Test results reported in patent US20250154198A1, “PEPTIDE INHIBITORS OF INTERLEUKIN-23 RECEPTOR” (Zealand Pharma A/S, priority 2021, published 2025).
*1 amine or outer side, *2 acyl side, *3 side chain or, on linkers, in order; H or OH if unused. Where a SMILES comes first, the peptide text is derived from it. Bridges are numbered along the chain shown (N, C = ends). [ ]: non-standard residue; d: D form. αMeAla(3-pyridyl) = C[C@](N)(Cc1cccnc1)C(=O)O; Phe(3,4-Me2) = Cc1ccc(C[C@H](N)C(=O)O)cc1C; Phe(4-Cl) = N[C@@H](Cc1ccc(Cl)cc1)C(=O)O; αMeW = C[C@](N)(Cc1c[nH]c2ccccc12)C(=O)O; X1 = O=C(Cc1ccc(CN[*:1])cc1)[*:2]; αMeV = CC(C)[C@](C)(N)C(=O)O; Dab = NCC[C@H](N)C(=O)O

Key:
[1] = Peptide stability in simulated intestinal fluid (SIF); type: in vitro ADME; conditions: pig, simulated intestinal fluid (SIF) with porcine pancreatin, Table 3-2, porcine pancreatin, pH 6.8, 37° C., 10 μM; for remaining at 4 h, 10 μM: read-out: SIF (% remaining 4 h)
Method in brief: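 Peptides incubated at 37°C with gentle shaking in SGF (NaCl, HCl, pH 1.2) or SIF (phosphate pH 6.8 with 10 g/L porcine pancreatin). Samples analysed by LC-HRMS; percent remaining at each timepoint calculated from absolute peak areas relative to time zero.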

[2] = Peptide stability in simulated gastric fluid (SGF); type: in vitro ADME; conditions: pig, simulated gastric fluid (SGF) with porcine pepsin, Table 3-3, porcine pepsin, pH 1.2, 37° C., 10 μM; for remaining at 4 h, 10 μM: read-out: SGF (% remaining 4 h)
Experimental: Determination of Peptide Stability in Simulated Gastric Fluid (SGF) and Simulated Intestinal Fluid (SIF)
SGF was prepared by dissolving sodium chloride (0.2 g) in 50 mL of water. A volume of 0.7 mL of 10 M HCl was added to adjust the pH of the solution to 1.2 and the volume made up to 100 mL with water. […] SIF was prepared by dissolving monobasic potassium phosphate (0.68 g) in 50 mL of water and adjusting the pH to 6.8 with 1 M NaOH. The volume was subsequently made up to 100 mL with water. 200 mg porcine pancreatin (P1625, Sigma Aldrich) was gently dissolved into 20 mL preheated (37° C.) solution (10 g/L) immediately prior to the incubation.
The incubation was performed at 37° C. with gentle shaking. […] After the last timepoint, the sampling plate was mixed for 10 min on a shaking table and centrifuged 10 min at 2200 g. 70 μL resulting supernatant was diluted with 150 μL water, mixed and centrifugated before analysis by liquid chromatography high resolution mass spectrometry. […] Percent remaining at each timepoint was calculated relative to timepoint zero based on absolute peak areas.

remaining at 4 h, 10 μM [1] [%] | remaining at 4 h, 10 μM [2] [%] | remaining at 1 h, 10 μM ([1]; 1 h, read-out: SIF (% remaining 1 h)) [%] | remaining at 1 h, 10 μM ([2]; 1 h, read-out: SGF (% remaining 1 h)) [%] | SMILES
68 | 75 | – | – | CC[C@H](C)[C@@H]1NC(=O)Cc2ccc(cc2)CNC(=O)CC[C@@H](C(=O)N[C@@H](CCN)C(=O)N[C@@](C)(Cc2cccnc2)C(N)=O)NC(=O)[C@](C)(C(C)C)NC(=O)[C@H](Cc2ccc(C)c(C)c2)NC(=O)[C@H](Cc2ccc(Cl)cc2)NC(=O)[C@@H]2CCNC(=O)CC[C@H](NC1=O)C(=O)N[C@@H](Cc1c[nH]c3ccccc13)C(=O)N[C@@H](CCC(N)=O)C(=O)N2 [Compound 171, [4-Aminomethyl-phenylacetyl](1c)*IE(2c)WQ[Dab](2c)[F(4-Cl)][F(3,4-Me)][2-Me-Val]E(1c)[Dab][2-Me-3-(3-Pyridyl)-Ala]-[NH2]] ([X1]IEWQ[Dab][Phe(4-Cl)][Phe(3,4-Me2)][αMeV]E[Dab][αMeAla(3-pyridyl)]-NH2; lactam 3-6, N-10)
70 | 99 | – | – | CC[C@H](C)[C@@H]1NC(=O)Cc2ccc(cc2)CNC(=O)CC[C@@H](C(=O)N[C@@H](CCN)C(=O)N[C@@](C)(Cc2cccnc2)C(N)=O)NC(=O)[C@](C)(C(C)C)NC(=O)[C@H](Cc2ccc(C)c(C)c2)NC(=O)[C@](C)(Cc2c[nH]c3ccccc23)NC(=O)[C@@H]2CCNC(=O)CC[C@H](NC1=O)C(=O)N[C@@H](Cc1c[nH]c3ccccc13)C(=O)N[C@@H](CCC(N)=O)C(=O)N2 [Compound 172, [4-Aminomethyl-phenylacetyl](1c)*IE(2c)WQ[Dab](2c)[alpha-Me-Trp][F(3,4-Me)][2-Me-Val]E(1c)[Dab][2-Me-3-(3-Pyridyl)-Ala]-[NH2]] ([X1]IEWQ[Dab][αMeW][Phe(3,4-Me2)][αMeV]E[Dab][αMeAla(3-pyridyl)]-NH2; lactam 3-6, N-10)
76 | – | 92 | 100 | CC(=O)N[C@H]1CCSC[C@@H](C(=O)N[C@@H](Cc2ccc(OCCN)cc2)C(=O)N[C@@H](Cc2c[nH]c3ccccc23)C(=O)N[C@@](C)(CCCCN)C(=O)N[C@@H](CCC(=O)O)C(=O)N[C@@H](CC(N)=O)C(=O)NCC(N)=O)NC(=O)[C@H](CCC(N)=O)NC(=O)[C@H](Cc2c[nH]c3ccccc23)NC(=O)[C@H]([C@@H](C)O)NC(=O)[C@H](CCC(N)=O)NC1=O [Compound C, [Ac]-[Abu](16i)QTWQC(16i)[Y(2-aminoethoxy)]W[2-Me-Lys]ENG-[NH2], reference compound]
